# Data taken from patent publication US6287813A, “Antibiotic-based gene regulation system” (Cistronics Cell Technology GmbH, priority 1999, dated 2001).
# Assays:
# [1] = biological target: T1, PIT/PPIR system (Streptomyces coelicolor, UniProt Q9ADN3); experiment: Positive feedback vector pMF170 (PPIR-GFP-IRES-PIT-pA), GFP fluorescence microscopy; format: cell-based; settings: pMF170 in CHO-K1, BHK-21 or HeLa cells
# T1 construct: pMF156/pTWIN in CHO cells, PPIR-SEAP or GFP reporter
# T1 sequence (Q9ADN3 1-252): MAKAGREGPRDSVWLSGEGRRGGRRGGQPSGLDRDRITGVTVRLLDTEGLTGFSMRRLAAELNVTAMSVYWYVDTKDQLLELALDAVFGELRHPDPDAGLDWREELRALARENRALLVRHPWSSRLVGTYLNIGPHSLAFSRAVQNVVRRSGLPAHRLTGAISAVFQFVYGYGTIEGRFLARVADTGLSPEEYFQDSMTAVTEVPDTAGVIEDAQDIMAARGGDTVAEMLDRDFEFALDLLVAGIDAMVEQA
# Text: These positive feedback regulation vectors that were constructed contain both the green fluorescent protein GFP and PIT in a dicistronic, PPIR -driven configuration.
# For construction of the autoregulatory system, PIT was excised from pMF156 by EcoRI/HindIII and cloned into the polylinker of the eukaryotic expression vector pSBC-2 (EcoRI/HindIII). As a pSBC-2 derivative, the resulting plasmid pMF169 is compatible to the pSBC-1 derivative pMF164 (PPIR -GFP) and allows fusion of both expression units via their SspI/NotI restriction sites, thereby generating pMF170. pMF170 contains a dicistronic PPIR -regulated expression unit encoding GFP in the first and PIT in the second cistron. Cap-independent translation initiation of the second cistron is enabled by a picornaviral internal ribosomal entry site (IRES) encoded upstream of PIT.
# [2] = biological target: T1, PIT/PPIR system; experiment: SEAP reporter assay, stable CHO-PIT1/CHO-PIT2 transiently transfected with pMF172; format: cell-based
# Experimental: Chinese hamster ovary cells (CHO-K1, ATCC: CCL 61), Baby hamster kidney cells (BHK-21, ATCC: CRL-8544), and HeLa cells (ATCC: CRL-7923) as well as stable cell lines CHO-PIT1, CHO-PIT2, CHO-TWIN195, CHO-TWIN1108 and CHO-PIT1-SEAP were cultured as described before (Fussenegger et al., 1998, Nat. Biotechnol. 16,468-472) in the presence of appropriate antibiotics: G418 400 μg/ml; zeocin 100 μg/ml. Optimized CaPO4 protocols were used for high efficiency transient transfection of all cell lines (id). Transient transfected cells were routinely analyzed after 48 h for GFP or SEAP expression using fluorescence microscopy and p-nitrophenolphosphate-based light absorbance timecourse, respectively, as described before (Fussenegger et al., 1998, Nat. Biotechnol. 16, 468-472; Berger et al., 1988, Gene 66, 1-10 b). For construction of stable CHO-PIT and CHO-TWIN cell lines, CHO-K1 was cotransfected either with pMF156 or pTWIN1 and pSV2neo carrying the G418 resistance gene. CHO-PIT1-SEAP was constructed by cotransfection of pMF172 and pZeoSV2 (Invitrogen). For assessment of dose-response characteristics of PPIR -regulated gene expression, CHO-PIT1-SEAP were cultured at cell densities of 150,000/ml for 48 at various PI concentrations. The mixed populations were cloned using FACS-mediated single-cell-sorting (FACStar^Plus; Beckton Dickinson). Gel retardation assay were performed as described (Salah-Bey et al., 1995, supra) using Pip purified from an overproducing strain of E. coli. Pip (0.02 pmol) was titrated with a range of antibiotic concentrations in a reaction volume of 20 μl. Protein solutions were pre-incubated at room temperature for 15 min. in the absence or presence of PI or its derivative quinupristin in a buffer containing 10 mM Tris (pH 7.8), 10 mM MgCl2, 300 mM NaCl, 2 mM DTT and 10% glycerol. An EcoRI-HindII PPTR fragment (0.02 pmol) containing three Pip binding sites (radiolabelled using α-^32 P)dATP was added and incubated for 15 min. To minimize nonspecific protein binding and increase protein stability, 2 μg of poly dIdC and 20 μg BSA were included in the incubation mix. Protein-DNA complexes were separated on 5% polyacrylamide,TBE gels and visualized by autoradiography.
# Five different sources of pristinamycin were used: The two therapeutic forms Pyostacin™ and Synercid™, pristinamycin discs, and the single compounds pristinamycin I (PI) and pristinamycin II (PII). Pyostacin™ pills (500 mg) were ground in a mortar and solubilized in DMSO or water at a stock concentration of 50 mg/ml. Synercid™ (RP 59500; Lot Nr. CB06253) was provided by Aventis in injection-ready vials containing 500 mg lyophilized antibiotic which was reconstituted in 5 ml of 5% glucose solution and frozen at -20° C. Individual pristinamycin compounds PI and PII (identical to virginiamycin M1 (VM1); Sigma ref. V2753) were solubilized in DMSO at a concentration of 50 mg/ml and kept at -20° C. Antibiotic discs containing 15 μg pristinamycin or virginiamycin (bioMerieux, ref. 54552; bioMerieux, ref. 54612) were soaked in 1 ml cell culture medium at 4i C for up to 24 h. Virginiamycin consists of virginiamnycin S1 (VS1), the PI analogue, and virginiamycin M1, which is identical in structure to PII (Barri re et al., 1994, supra). 2 μg/ml of streptogramin B was routinely used for regulation studies in cell culture. The concentration of individual streptogramin components was calculated based on their fixed 70:30 ratio (w/w; PII/VM1 /dalfopristin: PI/VS1 /quinupristin). For control experiments TET and doxycycline (DOX) were used either as discs (30 μg/disc, bioM.quadrature.rieux ref. 54882 (TET) and ref. 54172 (DOX)) or as powder (Sigma refs. T3383 and D9891).
# Table 4: Pristinamycin I- (PI) dependent SEAP production of PIT- (PI-dependent transactivator) expressing stable cell lines CHO-PIT1 and CHO-PIT2 transiently transfected with the SEAP-encoding, PI-responsive reporter plasmid pMF172.
# Table 5: Regulation potential of different streptogramins. […]
substance,measurement,setting,value
pristinamycin I [PI],GFP-expression in the presence of PI,[1],completely repressed
same,Induction factor (ratio of SEAP activity without PI to SEAP activity with PI),[2]; CHO-PIT1,13
same,SEAP Production (%),"[2]; CHO-PIT1 + pMF172, 48 h, 2 μg/ml of group B component, no streptogramin = 100",8.06 ± 0.05%
same,SEAP Production (%),"[2]; CHO-PIT1 + pMF172, +PI 2 μg/ml, -PI = 100",7.50 ± 2.32%
same,Induction factor (ratio of SEAP activity without PI to SEAP activity with PI),[2]; CHO-PIT2,8
same,SEAP Production (%),"[2]; CHO-PIT2 + pMF172, +PI 2 μg/ml, -PI = 100",12.7 ± 3.57%
same,Reversibility of PI-responsive SEAP regulation,"[2]; CHO-PIT derivatives, repeated cycles of addition and withdrawal",fully reversible
